Test results reported in US20260344665A1, “FUNGICIDAL COMPOUND” (priority 2022, published 2026).

Legend:
[1] = system: Puccinia recondita f. sp. tritici; assay: Leaf painting assay in wheat seedling, Puccinia recondita preventive; type: in vivo
Description: Wheat seedlings of the variety Riband (for Zymoseptoria tritici trials) or variety Arina (for Puccinia recondite trials) were grown in the glasshouse until 14d after seeding. At this time, such seedlings usually have a first leaf fully emerged (designated L1), a second leaf fully emerged (L2) and a third leaf (L3) that is partially emerged and in the process of development. Using a permanent pen, two dots were applied on the second leaf such as to generate three segments of roughly equal size: Segment A (at the base), segment B (middle part) and segment C (tip of the leaf). A stock solution of the compound of Formula (I) was produced in water and of benzovindiflupyr in DMSO at a concentration of 10,000 ppm. […] The diluted compound was applied to the middle segment of L2 using a conventional cotton stick; the cotton stick was soaked in the diluted compound and rubbed several times on the adaxial leaf surface between the two marks. One day later, the complete plant was inoculated with a fungal spore suspension using a paint brush. The spore suspension was applied until before run-off.
For infection with Puccinia recondita (preventive): The test plants were inoculated by spraying them with a spore suspension one day after application (spore suspension at 80,000 spores per ml in water supplemented with Tween20 at 0.1%). After an incubation period of 1 day at 20 °C and 95% rh, the inoculated test plants were kept at 20 °C and 60% rh in a greenhouse.
The three segments of the leaf were evaluated individually.

[2] = system: Puccinia recondita f. sp. tritici; assay: Puccinia recondita f. sp. tritici / wheat / leaf disc preventative (brown rust); type: in vivo; settings: for % reduction fungal growth: wheat, preventive
Description: Leaf disks or leaf segments of various plant species were cut from plants grown in the greenhouse. The cut leaf discs or segments were placed in multiwell plates (24-well format) onto water agar. The leaf disks were sprayed with a test solution before (preventative) or after (curative) inoculation. Compounds to be tested were prepared as water solutions (max. 10 mg/ml) which were diluted to the appropriate concentration with 0.025% Tween20 just before spraying. The inoculated leaf discs or segments were incubated under defined conditions (temperature, relative humidity, light, etc.) according to the respective test system. A single evaluation of disease level was carried out 3-9 days days after inoculation, depending on the pathosystem. Percent disease control relative to the untreated check leaf discs or segments was then calculated.
Puccinia recondita f. sp. tritici/Wheat/Leaf Disc Preventative (Brown Rust)
Wheat leaf segments cv. Kanzler were placed on agar in multiwell plates (24-well format) and sprayed with the formulated test compound diluted in water. The leaf disks were inoculated with a spore suspension of the fungus 1 day after application. The inoculated leaf segments were incubated at 19 °C and 75% rh under a light regime of 12 h light/12 h darkness in a climate cabinet and the activity of a compound was assessed as percent disease control compared to untreated leaf when an appropriate level of disease damage appeared in untreated check leaf segments (7-9 days after application).

CC(=O)NC1C(OCC(OC2OC(CO)C(O)C(O)C2O)C2OC(OC3C(O)C(CO)OC(OC4(CO)OC(C(O)CO)C(O)C4OC4OC(CO)C(O)C(O)C4O)C3O)C(O)C(O)C2OC2OC(C(O)CO)C(O)C(O)C2OC2OCC(OC(N)=O)C(O)C2O)OC(CO)C(O)C1O (stereo not drawn) [compound of Formula (I)]
% reduction fungal growth ([1]; Experiment 1, 200.00 ppm, base segment, preventive): 0%
% reduction fungal growth ([1]; Experiment 1, 200.00 ppm, middle segment (treated), preventive): 48%
% reduction fungal growth ([1]; Experiment 1, 200.00 ppm, tip segment, preventive): 31%
% reduction fungal growth ([1]; Experiment 2, 200.00 ppm, base segment, preventive): 10%
% reduction fungal growth ([1]; Experiment 2, 200.00 ppm, middle segment (treated), preventive): 79%
% reduction fungal growth ([1]; Experiment 2, 200.00 ppm, tip segment, preventive): 38%
% reduction fungal growth ([1]; Experiment 3, 400.00 ppm, base segment, preventive): 16%
% reduction fungal growth ([1]; Experiment 3, 400.00 ppm, middle segment (treated), preventive): 98%
% reduction fungal growth ([1]; Experiment 3, 400.00 ppm, tip segment, preventive): 99%
% reduction fungal growth ([1]; Experiment 4, 500.00 ppm, base segment, preventive): 0%
% reduction fungal growth ([1]; Experiment 4, 500.00 ppm, middle segment (treated), preventive): 69%
% reduction fungal growth ([1]; Experiment 4, 500.00 ppm, tip segment, preventive): 82%
activity against growth of fungus ([1]; leaf painting, preventive): active against growth
control on treated and above treated area ([1]; middle segment treated): provided control on the treated area (middle segment) as well as the above treated area (tip)
preventive activity to control Puccinia recondita [2]: preventive (application of compound followed by infection with pathogen)
% reduction fungal growth ([2]; 0.80 ppm): 0%
% reduction fungal growth ([2]; 2.50 ppm): 0%
% reduction fungal growth ([2]; 7.40 ppm): 0%
% reduction fungal growth ([2]; 22.00 ppm): 0%
% reduction fungal growth ([2]; 67.00 ppm): 45%
% reduction fungal growth ([2]; 200.00 ppm): 95%
